# Data taken from ChEMBL document CHEMBL5053498, “Acremonamide, a Cyclic Pentadepsipeptide with Wound-Healing Properties Isolated from a Marine-Derived Fungus of the Genus Acremonium” (J Nat Prod, 2021).
# Active and inactive are the calls of the source. The calls are words filed in the database; no cut-off is given here.
# Tests used:
# HaCaT [1] = assay: Cytotoxicity against human HacaT cells assessed as cell viability at 3.12 to 50 uM measured after 48 hrs by MTT assay; type: cell-based; settings: dose 3.12-50 µM
# HaCaT [2] = assay: Induction of wound healing in human HacaT cells assessed as increase in ACTC1 mRNA level at 12.5 uM by RT-PCR analysis; type: functional, cell-based
# HaCaT [3] = assay: Induction of cell migration in human HacaT cells at 12.5 uM measured after 24 hrs by transwell assay; type: functional
# NIH3T3 [4] = assay: Induction of wound healing in mouse NIH3T3 cells assessed as increase in COL1A2 mRNA level at 12.5 uM by RT-PCR analysis; type: functional, cell-based
# Mus musculus = species on record: Mus musculus; assay: Induction of wound healing in BALB/c mouse assessed as reduction in wound area after 6 days; type: functional, organism-based; settings: time 6.0 day
# NIH3T3 [5] = assay: Induction of wound healing in mouse NIH3T3 cells assessed as increase in ACTC1 mRNA level at 12.5 uM by RT-PCR analysis; type: functional, cell-based
# Caco-2 = assay: Cytotoxicity against human Caco-2 cells assessed as cell viability at 3.12 to 50 uM measured after 48 hrs by MTT assay; type: functional, cell-based; settings: dose 3.12-50 µM
# [6] = Induction of cell invasion in mouse NIH3T3 cells at 12.5 uM measured after 24 hrs by transwell assay; type: functional
# NIH3T3 [7] = assay: Cytotoxicity against mouse NIH3T3 cells assessed as cell viability at 3.12 to 50 uM measured after 48 hrs by MTT assay; type: cell-based; settings: nih3t3, 48 h, dose 3.12-50 µM
# HaCaT [8] = assay: Induction of wound healing in human HacaT cells assessed as increase in COL1A2 mRNA level at 12.5 uM by RT-PCR analysis; type: functional, cell-based
# NIH3T3 [9] = assay: Induction of cell migration in mouse NIH3T3 cells at 12.5 uM measured after 24 hrs by transwell assay; type: functional
# [10] = Induction of cell invasion in human HacaT cells at 12.5 uM measured after 24 hrs by transwell assay; type: functional
compound,measurement,setting,value
CC(C)[C@@H]1NC(=O)[C@@H](C(C)C)OC(=O)[C@H](C)N(C)C(=O)[C@H](Cc2ccccc2)NC(=O)[C@H](Cc2ccccc2)N(C)C1=O,Activity,HaCaT [1],Non-Toxic
same,Activity,HaCaT [2],Active
same,Activity,HaCaT [3],50%
same,Activity,NIH3T3 [4],Active
same,Activity,Mus musculus,Active
same,Activity,NIH3T3 [5],Active
same,Activity,Caco-2,inactive
same,Activity,[6],50%
same,Activity,NIH3T3 [7],Non-Toxic
same,Activity,HaCaT [8],Active
same,Activity,NIH3T3 [9],50%
same,Activity,[10],50%
